Test results: US20230026167A1, “COSMETIC OR DERMATOLOGICAL COMPOSITION ACTING IN PARTICULAR ON THE EFFECTS OF BLUE LIGHT ON SKIN AND ITS APPENDAGES, AND ASSOCIATED USES” (Sederma, priority 2019, published 2023)
* marks the point of attachment. Palmitoyl = CCCCCCCCCCCCCCCC(=O)*

System: IL-6
Test: Synergy test: IL-6 production on HK following blue light irradiation (ELISA)
Format: cell-based, human
Conditions: blue light 30.2 J/cm2, 24 hours contact, compound taken separately, nsd
Method: HK are cultivated in their culture medium. After rinsing with PBS, the cells are returned to this same buffer and exposed to blue light at a non-cytotoxic dose of 30.2 J/cm^2. The exhibition system consists of a set of 30 blue LEDs spread over a 30 cm^2 flat surface. The photon flux reaches the cells perpendicularly. The temperature is controlled, and all the cells are in the same enclosure (37° C./5% CO2). The emission spectrum is centered on 420 nm. The cells are then brought into contact with each of the invention compounds taken separately or with the composition according to the invention for 24 hours. The culture media are then harvested, and the IL-6 concentrations assayed by ELISA method. An assay on the cell layers is used to reduce to the number of cells.

| Molecule | % of variation in IL-6 production (1.6 ppm) [%] | % of variation in IL-6 production (15 ppm) [%] |
| --- | --- | --- |
| O=c1cc(-c2ccccc2)oc2cc(O)cc(O)c12 [Chrysine, 5,7-dihydroxyflavone] | −10 |  |
| Palmitoyl-GQPR-OH [Pal-GQPR] |  | −7 |
